What was measured:
Assay in all cases: cells
TGW = type: functional, cell-based, Homo sapiens; details: Homo sapiens, TGW;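 further: growth inhibition of human TGW cells, read out with a cell viability assay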
Description: SANGER: Inhibition of human TGW cell growth in a cell viability assay.

LU-139 = type: functional, cell-based, Homo sapiens; details: Homo sapiens, LU-139
Description: SANGER: Inhibition of human LU-139 cell growth in a cell viability assay.

NCI-H82 = type: functional, cell-based, Homo sapiens; details: Homo sapiens, NCI-H82;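 further: growth inhibition of NCI-H82 cells, measured with a cell viability readout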
Description: SANGER: Inhibition of human NCI-H82 cell growth in a cell viability assay.

NCI-H1650 = type: functional, cell-based, Homo sapiens; details: Homo sapiens, NCI-H1650;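 further: growth inhibition of human NCI-H1650 cells measured by a cell viability assay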
Description: SANGER: Inhibition of human NCI-H1650 cell growth in a cell viability assay.

KARPAS-299 = type: functional, cell-based, Homo sapiens; details: Homo sapiens, KARPAS-299
Description: SANGER: Inhibition of human KARPAS-299 cell growth in a cell viability assay.

NB10 = type: functional, cell-based, Homo sapiens; details: Homo sapiens, NB10;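 further: growth inhibition of NB10 cells, read out by a cell viability assay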
Description: SANGER: Inhibition of human NB10 cell growth in a cell viability assay.

EW-18 = type: functional, cell-based, Homo sapiens; details: Homo sapiens, EW-18;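 further: growth inhibition of EW-18 cells, read out by a cell viability assay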
Description: SANGER: Inhibition of human EW-18 cell growth in a cell viability assay.

D-502MG = type: functional, cell-based, Homo sapiens; details: Homo sapiens, D-502MG
Description: SANGER: Inhibition of human D-502MG cell growth in a cell viability assay.

OMC-1 = type: functional, cell-based, Homo sapiens; details: Homo sapiens, OMC-1;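 further: growth inhibition of the OMC-1 cell line, measured by a cell viability assay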
Description: SANGER: Inhibition of human OMC-1 cell growth in a cell viability assay.

SCH = type: functional, cell-based, Homo sapiens; details: Homo sapiens, SCH;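 further: growth inhibition of human SCH cells, read out in a cell viability assay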
Description: SANGER: Inhibition of human SCH cell growth in a cell viability assay.

BB30-HNC = type: functional, cell-based, Homo sapiens; details: Homo sapiens, BB30-HNC;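 further: growth inhibition of the cultured cell line, read out by a cell viability assay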
Description: SANGER: Inhibition of human BB30-HNC cell growth in a cell viability assay.

DJM-1 = type: functional, cell-based, Homo sapiens; details: Homo sapiens, DJM-1;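 further: growth inhibition of human DJM-1 cells, read out by a cell viability assay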
Description: SANGER: Inhibition of human DJM-1 cell growth in a cell viability assay.

SJSA-1 = type: functional, cell-based, Homo sapiens; details: Homo sapiens, SJSA-1;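 further: growth inhibition of human SJSA-1 cells, read out through a cell viability measurement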
Description: SANGER: Inhibition of human SJSA-1 cell growth in a cell viability assay.

COR-L88 = type: functional, cell-based, Homo sapiens; details: Homo sapiens, COR-L88;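 further: growth inhibition of COR-L88 cells, read out with a cell viability assay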
Description: SANGER: Inhibition of human COR-L88 cell growth in a cell viability assay.

NEC8 = type: functional, cell-based, Homo sapiens; details: Homo sapiens, NEC8;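 further: growth inhibition of human NEC8 cells, read out by a cell viability assay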
Description: SANGER: Inhibition of human NEC8 cell growth in a cell viability assay.

KNS-42 = type: functional, cell-based, Homo sapiens; details: Homo sapiens, KNS-42;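 further: growth inhibition of KNS-42 cells, read out with a cell viability assay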
Description: SANGER: Inhibition of human KNS-42 cell growth in a cell viability assay.

SNU-5 = type: functional, cell-based, Homo sapiens; details: Homo sapiens, SNU-5;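 further: cell viability readout used to measure growth inhibition in human NCI-SNU-5 cells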
Description: SANGER: Inhibition of human NCI-SNU-5 cell growth in a cell viability assay.

MHH-NB-11 = type: functional, cell-based, Homo sapiens; details: Homo sapiens, MHH-NB-11;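 further: growth inhibition of human MHH-NB-11 cells, read out by a cell viability assay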
Description: SANGER: Inhibition of human MHH-NB-11 cell growth in a cell viability assay.

ATN-1 = type: functional, cell-based, Homo sapiens; details: Homo sapiens, ATN-1;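 further: growth inhibition of human ATN-1 cells, read out with a cell viability assay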
Description: SANGER: Inhibition of human ATN-1 cell growth in a cell viability assay.

ALL-PO = type: functional, cell-based, Homo sapiens; details: Homo sapiens, ALL-PO;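 further: growth inhibition of ALL-PO cells, read out by a cell viability assay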
Description: SANGER: Inhibition of human ALL-PO cell growth in a cell viability assay.

ES5 = type: functional, cell-based, Homo sapiens; details: Homo sapiens, ES5;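 further: growth inhibition of human ES5 cells, read out by a cell viability assay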
Description: SANGER: Inhibition of human ES5 cell growth in a cell viability assay.

LS-1034 = type: functional, cell-based, Homo sapiens; details: Homo sapiens, LS-1034
Description: SANGER: Inhibition of human LS-1034 cell growth in a cell viability assay.

LOX IMVI = type: functional, cell-based, Homo sapiens; details: Homo sapiens, LOX IMVI
Description: SANGER: Inhibition of human LOXIMVI cell growth in a cell viability assay.

LB831-BLC = type: functional, cell-based, Homo sapiens; details: Homo sapiens, LB831-BLC;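 further: growth inhibition of LB831-BLC cells, read out with a cell viability assay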
Description: SANGER: Inhibition of human LB831-BLC cell growth in a cell viability assay.

DMS-114 = type: functional, cell-based, Homo sapiens; details: Homo sapiens, DMS-114
Lu-65 = type: functional, cell-based, Homo sapiens; details: Homo sapiens, Lu-65;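 further: growth inhibition of Lu-65 cancer cells, read out by a cell viability assay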
Description: SANGER: Inhibition of human LU-65 cell growth in a cell viability assay.

KM-H2 = type: functional, cell-based, Homo sapiens; details: Homo sapiens, KM-H2;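 further: growth inhibition of KM-H2 cells, read out by a cell viability assay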
Description: SANGER: Inhibition of human KM-H2 cell growth in a cell viability assay.

HCC1187 = type: functional, cell-based, Homo sapiens; details: Homo sapiens, HCC1187;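 further: growth inhibition of HCC1187 cells, read out with a cell viability assay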
Description: SANGER: Inhibition of human HCC1187 cell growth in a cell viability assay.

SNB-75 = type: functional, cell-based, Homo sapiens; details: Homo sapiens, SNB-75;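 further: cell viability assay measuring growth inhibition of human SNB-75 cells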
Description: SANGER: Inhibition of human SNB75 cell growth in a cell viability assay.

RS4-11 = type: functional, cell-based, Homo sapiens; details: Homo sapiens, RS4-11;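 further: growth inhibition of RS4-11 cells, read out by a cell viability assay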
Description: SANGER: Inhibition of human RS4-11 cell growth in a cell viability assay.

K5 = type: functional, cell-based, Homo sapiens; details: Homo sapiens, K5
Description: SANGER: Inhibition of human K5 cell growth in a cell viability assay.

KE-37 = type: functional, cell-based, Homo sapiens; details: Homo sapiens, KE-37;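 further: growth inhibition of KE-37 cells, read out with a cell viability assay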
Description: SANGER: Inhibition of human KE-37 cell growth in a cell viability assay.

AM-38 = type: functional, cell-based, Homo sapiens; details: Homo sapiens, AM-38;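 further: growth inhibition of AM-38 cells of human origin, read out by a cell viability assay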
Description: SANGER: Inhibition of human AM-38 cell growth in a cell viability assay.

NCI-H1648 = type: functional, cell-based, Homo sapiens; details: Homo sapiens, NCI-H1648;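 further: cell viability assay measuring inhibition of NCI-H1648 cell growth, from the Sanger screening data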
Description: SANGER: Inhibition of human NCI-H1648 cell growth in a cell viability assay.

OVCAR-4 = type: functional, cell-based, Homo sapiens; details: Homo sapiens, OVCAR-4;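 further: growth inhibition of human OVCAR-4 cells, measured with a cell viability assay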
Description: SANGER: Inhibition of human OVCAR-4 cell growth in a cell viability assay.

HuTu80 = type: functional, cell-based, Homo sapiens, HUTU-80; details: Homo sapiens, HuTu80;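 further: growth inhibition of HuTu80 human cells, determined with a cell viability readout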
Description: SANGER: Inhibition of human HUTU-80 cell growth in a cell viability assay.

MOLT-16 = type: functional, cell-based, Homo sapiens; details: Homo sapiens, MOLT-16;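 further: growth inhibition of human MOLT-16 cells, read out with a cell viability assay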
Description: SANGER: Inhibition of human MOLT-16 cell growth in a cell viability assay.

MSTO-211H = type: functional, cell-based, Homo sapiens; details: Homo sapiens, MSTO-211H
Description: SANGER: Inhibition of human MSTO-211H cell growth in a cell viability assay.

KALS-1 = type: functional, cell-based, Homo sapiens; details: Homo sapiens, KALS-1;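 further: growth inhibition of KALS-1 cells, determined with a cell viability assay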
Description: SANGER: Inhibition of human KALS-1 cell growth in a cell viability assay.

LB771-HNC = type: functional, cell-based, Homo sapiens; details: Homo sapiens, LB771-HNC;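 further: growth inhibition of LB771-HNC human cells, read out with a cell viability assay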
Description: SANGER: Inhibition of human LB771-HNC cell growth in a cell viability assay.

Ramos-2G6-4C10 = type: functional, cell-based, Homo sapiens; details: Homo sapiens, Ramos-2G6-4C10;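 further: growth inhibition of the cell line, measured by a cell viability read-out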
Description: SANGER: Inhibition of human Ramos-2G6-4C10 cell growth in a cell viability assay.

HC-1 = type: functional, cell-based, Homo sapiens; details: Homo sapiens, HC-1;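 further: growth inhibition of HC-1 cells measured by a cell viability assay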
Description: SANGER: Inhibition of human HC-1 cell growth in a cell viability assay.

HH = type: functional, cell-based, Homo sapiens; details: Homo sapiens, HH
Description: SANGER: Inhibition of human HH cell growth in a cell viability assay.

GI-1 = type: functional, cell-based, Homo sapiens; details: Homo sapiens, GI-1;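 further: growth inhibition of human GI-1 cells, measured with a cell viability readout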
Description: SANGER: Inhibition of human GI-1 cell growth in a cell viability assay.

COLO-824 = type: functional, cell-based, Homo sapiens; details: Homo sapiens, COLO-824
Description: SANGER: Inhibition of human COLO-824 cell growth in a cell viability assay.

NCI-H226 = type: functional, cell-based, Homo sapiens; details: Homo sapiens, NCI-H226;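 further: cell viability read-out used to gauge growth inhibition of the cells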
Description: SANGER: Inhibition of human NCI-H226 cell growth in a cell viability assay.

LB2518-MEL = type: functional, cell-based, Homo sapiens; details: Homo sapiens, LB2518-MEL;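 further: growth inhibition of human LB2518-MEL cells, measured with a cell viability assay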
Description: SANGER: Inhibition of human LB2518-MEL cell growth in a cell viability assay.

TGBC24TKB = type: functional, cell-based, Homo sapiens; details: Homo sapiens, TGBC24TKB;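 further: growth inhibition of human TGBC24TKB cells, read out with a cell viability assay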
Description: SANGER: Inhibition of human TGBC24TKB cell growth in a cell viability assay.

TE-11 = type: functional, cell-based, Homo sapiens; details: Homo sapiens, TE-11;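 further: growth inhibition of human TE-11 cells, read out by a cell viability assay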
Description: SANGER: Inhibition of human TE-11 cell growth in a cell viability assay.

SMILES: COc1cc(N2CCN(C)CC2)ccc1Nc1ncc2c(n1)N(C)c1ccccc1C(=O)N2C
- IC50 (TGW): > 8 µM
- IC50 (LU-139): 6.86 µM
- IC50 (NCI-H82): > 8 µM
- IC50 (NCI-H1650): > 8 µM
- IC50 (KARPAS-299): > 8 µM
- IC50 (NB10): > 8 µM
- IC50 (EW-18): > 8 µM
- IC50 (D-502MG): > 8 µM
- IC50 (OMC-1): > 8 µM
- IC50 (SCH): > 8 µM
- IC50 (BB30-HNC): 4.51 µM
- IC50 (DJM-1): > 8 µM
- IC50 (SJSA-1): > 8 µM
- IC50 (COR-L88): > 8 µM
- IC50 (NEC8): > 8 µM
- IC50 (KNS-42): > 8 µM
- IC50 (SNU-5): > 8 µM
- IC50 (MHH-NB-11): > 8 µM
- IC50 (ATN-1): > 8 µM
- IC50 (ALL-PO): 5.74 µM
- IC50 (ES5): > 8 µM
- IC50 (LS-1034): > 8 µM
- IC50 (LOX IMVI): > 8 µM
- IC50 (LB831-BLC): > 8 µM
- IC50 (DMS-114): > 8 µM
- IC50 (Lu-65): > 8 µM
- IC50 (KM-H2): > 8 µM
- IC50 (HCC1187): > 8 µM
- IC50 (SNB-75): 7.34 µM
- IC50 (RS4-11): 3.42 µM
- IC50 (K5): > 8 µM
- IC50 (KE-37): > 8 µM
- IC50 (AM-38): > 8 µM
- IC50 (NCI-H1648): > 8 µM
- IC50 (OVCAR-4): > 8 µM
- IC50 (HuTu80): > 8 µM
- IC50 (MOLT-16): 2.71 µM
- IC50 (MSTO-211H): > 8 µM
- IC50 (KALS-1): 7.78 µM
- IC50 (LB771-HNC): > 8 µM
- IC50 (Ramos-2G6-4C10): 5.67 µM
- IC50 (HC-1): > 8 µM
- IC50 (HH): 4.58 µM
- IC50 (GI-1): > 8 µM
- IC50 (COLO-824): > 8 µM
- IC50 (NCI-H226): > 8 µM
- IC50 (LB2518-MEL): > 8 µM

SMILES: COc1cc2c(Nc3ccc(NC(=O)c4ccccc4)cc3)ncnc2cc1OCCCN1CCOCC1
- IC50 (TGBC24TKB): > 4 µM
- IC50 (TGW): > 4 µM
- IC50 (LU-139): 3.83 µM
- IC50 (NCI-H82): > 4 µM
- IC50 (NCI-H1650): > 4 µM
- IC50 (KARPAS-299): > 4 µM
- IC50 (NB10): > 4 µM
- IC50 (EW-18): > 4 µM
- IC50 (D-502MG): 3.97 µM
- IC50 (OMC-1): > 4 µM
- IC50 (SCH): > 4 µM
- IC50 (BB30-HNC): 2.54 µM
- IC50 (DJM-1): > 4 µM
- IC50 (SJSA-1): > 4 µM
- IC50 (COR-L88): > 4 µM
- IC50 (NEC8): > 4 µM
- IC50 (KNS-42): > 4 µM
- IC50 (SNU-5): > 4 µM
- IC50 (MHH-NB-11): > 4 µM
- IC50 (ATN-1): > 4 µM
- IC50 (ALL-PO): 2.67 µM
- IC50 (ES5): 1 µM
- IC50 (LS-1034): > 4 µM
- IC50 (LOX IMVI): > 4 µM
- IC50 (LB831-BLC): > 4 µM
- IC50 (DMS-114): > 4 µM
- IC50 (Lu-65): > 4 µM
- IC50 (KM-H2): > 4 µM
- IC50 (HCC1187): > 4 µM
- IC50 (SNB-75): > 4 µM
- IC50 (RS4-11): 0.554 µM
- IC50 (K5): > 4 µM
- IC50 (KE-37): 1.21 µM
- IC50 (AM-38): > 4 µM
- IC50 (NCI-H1648): > 4 µM
- IC50 (OVCAR-4): > 4 µM
- IC50 (MOLT-16): 0.61 µM
- IC50 (MSTO-211H): > 4 µM
- IC50 (KALS-1): > 4 µM
- IC50 (LB771-HNC): > 4 µM
- IC50 (Ramos-2G6-4C10): 1.41 µM
- IC50 (HH): > 4 µM
- IC50 (GI-1): 3.26 µM
- IC50 (COLO-824): > 4 µM
- IC50 (TE-11): 0.537 µM
- IC50 (NCI-H226): > 4 µM
- IC50 (LB2518-MEL): > 4 µM
